Results published in PMC9751013 (European Journal of Medicinal Chemistry, 2022).

Assays:
[1] = target: T1, SARS-CoV-2 M^pro (Severe acute respiratory syndrome coronavirus 2, UniProt P0DTD1); format: biochemical; conditions: inhibitor at 10-fold IC50, 60 min incubation, 25 h of dialysis
[2] = target: T2, dengue virus NS2B/NS3 serine protease (Dengue virus type 2, UniProt P29990); experiment: Dengue virus NS2B/NS3 protease inhibition screening; format: biochemical, dengue virus 2
T2 sequence (P29990 1476-1653 limits assumed): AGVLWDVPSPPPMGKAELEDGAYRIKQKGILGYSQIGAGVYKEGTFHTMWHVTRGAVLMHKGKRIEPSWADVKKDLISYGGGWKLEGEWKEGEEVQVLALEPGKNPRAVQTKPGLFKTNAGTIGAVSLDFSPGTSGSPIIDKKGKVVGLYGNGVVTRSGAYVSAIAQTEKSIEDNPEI

[3] = target: hCatB (Homo sapiens, UniProt P07858); experiment: hCatB enzyme inhibition assay; format: biochemical; conditions: hCatB vs hCatL
[4] = target: SARS-CoV-2 papain-like protease (PL^pro) (Severe acute respiratory syndrome coronavirus 2, UniProt P0DTD1); experiment: SARS-CoV-2 PLpro enzyme inhibition screening; format: biochemical
[5] = target: T1, SARS-CoV-2 M^pro; format: biochemical

Compound	enzymatic activity of M^pro recovered after dialysis [1]	inhibitory activity against dengue virus NS2B/NS3 serine protease at 100 μM [2]	Ki hCatB fold higher compared to Ki hCatL [3] [fold]	inhibition of SARS-CoV-2 PL^pro at 100 μM [4]	binding affinity to SARS-CoV-2 M^pro, fold lower with respect to SPR38 [5] [fold]
CC(=O)/C=C/[C@H](C[C@@H]1CCNC1=O)NC(=O)[C@H](CC1CC1)NC(=O)OCc1ccccc1 [SPR39, Benzyl ((S)-3-cyclopropyl-1-oxo-1-(((S,E)-5-oxo-1-((S)-2-oxopyrrolidin-3-yl)hex-3-en-2-yl)amino)propan-2-yl)carbamate]	did not show recovering enzymatic activities	no inhibitory activity	~6	no inhibition	–
CCC[C@H](NC(=O)OCc1ccccc1)C(=O)N[C@H](/C=C/C(C)=O)C[C@@H]1CCNC1=O [SPR35, Benzyl ((S)-1-oxo-1-(((S,E)-5-oxo-1-((S)-2-oxopyrrolidin-3-yl)hex-3-en-2-yl)amino)pentan-2-yl)carbamate]	–	–	–	–	~7
CC(=O)/C=C/[C@H](C[C@@H]1CCNC1=O)NC(=O)[C@H](CC1CCCCC1)NC(=O)OCc1ccccc1 [SPR41, Benzyl ((S)-3-cyclohexyl-1-oxo-1-(((S,E)-5-oxo-1-((S)-2-oxopyrrolidin-3-yl)hex-3-en-2-yl)amino)propan-2-yl)carbamate]	did not show recovering enzymatic activities	no inhibitory activity	–	no inhibition	–
CCCC[C@H](NC(=O)OCc1ccccc1)C(=O)N[C@H](/C=C/C(C)=O)C[C@@H]1CCNC1=O [SPR38, Benzyl ((S)-1-oxo-1-(((S,E)-5-oxo-1-((S)-2-oxopyrrolidin-3-yl)hex-3-en-2-yl)amino)hexan-2-yl)carbamate]	–	no inhibitory activity	~2	no inhibition	–
